# Biological target: T1, Kv2.1-K356C (Rattus norvegicus, UniProt P15387, K360C)
# T1 construct: expressed in transfected cells; host or cells: Xenopus laevis oocytes (cRNA from pGA1)
# T1 sequence (P15387 1-857 K360C): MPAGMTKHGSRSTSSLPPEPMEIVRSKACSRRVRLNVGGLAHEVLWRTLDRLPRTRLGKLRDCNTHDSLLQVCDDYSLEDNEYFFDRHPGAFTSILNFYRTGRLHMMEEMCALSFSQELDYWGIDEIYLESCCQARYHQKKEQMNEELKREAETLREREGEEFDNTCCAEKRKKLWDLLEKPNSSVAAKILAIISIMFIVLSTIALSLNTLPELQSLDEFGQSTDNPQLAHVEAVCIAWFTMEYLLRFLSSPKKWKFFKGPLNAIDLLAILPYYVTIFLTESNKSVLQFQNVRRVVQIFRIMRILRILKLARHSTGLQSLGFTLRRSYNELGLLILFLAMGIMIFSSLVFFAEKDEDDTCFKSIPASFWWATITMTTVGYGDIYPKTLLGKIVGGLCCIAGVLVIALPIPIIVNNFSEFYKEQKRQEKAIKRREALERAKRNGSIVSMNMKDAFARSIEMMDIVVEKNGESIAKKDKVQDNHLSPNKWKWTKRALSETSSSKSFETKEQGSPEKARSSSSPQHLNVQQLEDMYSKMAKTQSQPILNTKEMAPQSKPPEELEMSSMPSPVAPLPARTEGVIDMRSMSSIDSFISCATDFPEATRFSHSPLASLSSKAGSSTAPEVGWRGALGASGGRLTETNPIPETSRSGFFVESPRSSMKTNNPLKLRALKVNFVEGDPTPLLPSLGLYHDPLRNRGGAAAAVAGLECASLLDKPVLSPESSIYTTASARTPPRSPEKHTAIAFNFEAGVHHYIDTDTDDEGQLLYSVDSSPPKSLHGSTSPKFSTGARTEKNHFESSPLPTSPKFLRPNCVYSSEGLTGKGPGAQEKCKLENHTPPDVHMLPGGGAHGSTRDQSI
# Assay: Cysteine protection experiments, K356C variant of Kv2.1 in oocytes
# Format: cell-based
# Excerpt: Kv2.1 mutants were constructed using the QuickChange Multi Site-Directed Mutagenesis Kit (Stratagene, La Jolla, Calif.). Mutant Kv2.1 genes (in the pGA1 oocyte expression vector for oocyte expression) were sequenced in their entirety to confirm appropriate mutations and check for inadvertent mutations, and then subcloned into a wild-type pGA1 backbone. For oocyte expression, Kv3.4 was in pBF1, Kv4.2 was in pRAT. cRNA transcripts were produced from SacII-linearized (Kv2.1), Mlullinearized (Kv3.4) and Not1-linearized (Kv4.2) DNA templates using the T3 (Kv2.1), SP6 (Kv3.4) and T7 (Kv4.2) mMessage mMachine kits (Ambion, Austin, Tex.). cRNA was quantified by spectrophotometry and its size integrity verified by gel electophoresis. Defolliculated stage V and VI Xenopus laevis oocytes (purchased from Nasco, Grand Island, N.Y.) were injected with 5 ng of cRNA encoding Kv2.1, Kv3.4 or Kv4.2. Chinese Hamster Ovary (CHO) cells were transfected with 0.25 μg Kv2.1 cDNA, 2 μg blank plasmid and 2 μg Green fluorescent Protein in pBOB using Supetfect transfection reagent (Qiagen) 24 hours before whole-cell voltage clamp studies.
# Whole-cell two-electrode voltage-clamp (TEVC) recordings were performed on X laevis oocytes expressing cloned Kv2.1, Kv3.4 or Kv4.2 using a Warner OC-725C amplifier and pClamp9 (Axon Instruments, Foster City, Calif.) software. Oocytes were bathed in a small-volume Warner oocyte bath and viewed with a Fisher dissection microscope. Bath solution for whole-cell oocyte recordings was (in mM): 96 NaCl, 4 KCl, 0.7 MgCl2, 1 CaCl2, 10 HEPES (pH 7.4); whole-cell oocyte TEVC pipettes were of 0.2-2 M resistance when filled with 3 M KCl. Experiments were performed 24-48 hours after cRNA injection. For assessment of current-voltage relationships in the absence or presence of dabco derivatives, oocytes were held at −80 mV, stepped for 2 seconds at voltages between −80 mV and +60 mV in 20 mV steps (Kv2.1) or between −80 and +50 mV in 10 mV steps (Kv3.4), then held for 500 ms at −40 mV before returning to the holding potential. For assessment of block during wash-in of dabco derivatives at a single voltage, oocytes were held at −80 mV, and repetitively stepped to 0 mV for 2 s with an interpulse interval of 10 s or 60 s as indicated. A range of concentrations of dabco or dabco derivatives were washed in via the bath solution during repetitive single-voltage pulses (after an initial period of 5 pulses with control solution to ensure current stabilization) until equilibrium block was achieved, to establish dose-responses. Inhibited currents are compared to the current at the end of 5-pulse control period, thus some bar graphs show ‘control’ current values slightly less than 1, and with an error bar, to show how much currents deviate in the absence of drug. Washout was performed after the highest concentration of blocker was washed in. In cases where washout was achieved, only those recordings in which current returned to within 10% of original current level were used for construction of dose-response curves. For cysteine protection experiments using the K356C variant of Kv2.1, a dabco derivative (JC638.2a) was washed in to equilibrium block, followed by wash-in of a solution containing both JC638.2a and MTSET until no further changes in current were seen; following this the solution was washed out with standard bath solution. As controls for this protection analysis, JC638.2a or MTSET were washed in alone until equilibrium block, then washed out.
# [1] = K356C-Kv2.1, JC638.2α plus MTSET
smiles,measurement,setting,value
"c1cc(C[N+]23CCN(CC2)CC3)ccc1C[N+]12CCN(CC1)CC2 [JC638.2α, α,α′-[bis(4-aza-1-azoniabicyclo[2.2.2]octanyl)]p-xylene]","current inhibition, administered alone",K356C mutant,62±3%
same,reversibility of block with washout,"K356C mutant, administered alone",reversed with washout
same,"current inhibition, co-application with MTSET after pre-application",[1],84±1%
same,"reversibility with washout, co-application with MTSET",[1],completely reversible with washout
